Experimental data taken from patent publication US8987486B2, “Trans-2-decenoic acid derivative and pharmaceutical agent containing the same” (Nagoya Industrial Science Research Institute, priority 2010, dated 2015).

Legend:
Assay type in all cases: in vivo
[1] = test system: paclitaxel-induced peripheral nerve disorder rats; test: von Frey test in paclitaxel-induced peripheral nerve disorder rats; conditions: Rattus norvegicus, ip; single intraperitoneal dose of 300 μ/kg; higher of the thresholds after 1 hour and 5 hours; normal threshold 15; read-out: Recovery rate of 50% reaction threshold value (%)
Protocol: The effect of the compound of the present invention was tested for a peripheral nerve disorder which is a side effect induced by the administration of paclitaxel (an anti-cancer agent) such as hyperesthesia including allodynia (severe pain induced by such tactile stimuli which usually cause no pain). The compound of the present invention was intraperitoneally administered to rats as a test drug to conduct a von Frey test.
Male SD rats of six weeks age (one group comprising six rats) were used as experimental animals and paclitaxel (2 mg/kg) was intraperitoneally administered every other day for four times in total to prepare paclitaxel-induced peripheral nerve disorder rats. During 18 and 25 days or during 20 to 27 days after initiation of paclitaxel administration, the test drug was intraperitoneally administered in a single dose of […] and the following von Frey test was conducted.
The rats of the above (1) were placed in a transparent acrylic cage with a wire-meshed floor and habituated for about three minutes and the 50% reaction threshold values to the mechanical stimulus of right hind limb were measured before administration of the test drug and after 1, 5 and 24 hours from initiation of the administration.
The measurement was conducted using von Frey filaments (manufactured by North Coast Medical Inc.) in accordance with the methods of Chaplan, et al. (Journal of Neuroscience Methods, vol. 53, no. 1, pages 55 to 63, 1994) and Dixon, et al. (Annual Review of Pharmacology and Toxicology, vol. 20, pages 441 to 462, 1980). […] The case where the rat escaped at the instance of removing the filament was also called positive. When the positive reaction was noted, stimulus was conducted similarly using a filament of one rank weaker while, when no reaction was noted, stimulus was conducted similarly using a filament of one rank stronger and the point when the reaction changed from negative to positive or from positive to negative was called the first two reactions. After that, stimulus was conducted for continuous four times by the same up-down method. A 50% reaction threshold value to the mechanical stimulus was measured using the reaction to the six stimuli in total and then (mean value)±(standard error) for each group was calculated. Incidentally, when stimulus reached by that of 15.0 g without positive reaction or, when positive reaction continued to 0.4 g, then 15.0 g or 0.25 g was adopted as each threshold value, respectively. With regard to the higher 50% reaction threshold value between the 50% threshold values after 1 hour and 5 hours from administration of a test drug, a recovery rate (%) of the 50% reaction threshold value was calculated by the following expression in which 15 was adopted as the normal threshold value. Recovery rate (%) of 50% reaction threshold value=[(50% reaction threshold value after 1 hour or 5 hours from administration of test drug)−(50% reaction threshold value before administration of test drug)]/[(Normal threshold value)−(50% reaction threshold value before administration of test drug)]

[2] = test system: chronic mild stress-induced depression model mice; test: Tail suspension test in chronic mild stress-induced depression model mice; conditions: control 103.18±15.96 seconds
Protocol: Female ddY strain mice of seven weeks age (n=8 to 12) were (A) subjected to forced swimming for 15 minutes and then to normal breeding for two clays, (B) subjected to breeding in an inclined cage for two days and then to normal breeding for one day, (C) subjected to breeding for one day where the floor mat was made wet and then to normal breeding for one day and (D) subjected to breeding for one day using a cage which was rotated at the rate of 180 rotations/minute and then to normal breeding for one clay. Further, (B) to (D) were repeated for two times and stress was loaded for three weeks in total to prepare chronic mild stress-induced depression model mice. During that time, the compound of the present invention dissolved in PBS or in a PBS solvent containing DMSO, etc. was orally administered once daily for three weeks and, after that, the suppressive effect for depressive symptom was evaluated by means of a tail suspension test. Thus, the area which was 1 cm from the tip of the tail of a mouse was grasped with hand and kept at the height of 10 cm from the floor, an observation was conducted for six minutes and the length of immobility time which is an index for the depressive symptom was measured. Incidentally, the test of significance was carried out by a one-way ANOVA, Tukey's Multiple Comparison Test.

[3] = test system: chronic mild stress-induced depressive model mice; test: Elevated plus maze test in chronic mild stress-induced depressive model mice; conditions: 1,500 μg/kg orally once daily for three weeks; control 25.37±4.13 seconds
Protocol: The same operation as in the above Test Example 7 was conducted to prepare chronic mild stress-induced depressive model mice (n=8 to 12). During that time, the compound of the present invention dissolved in PBS or in a PBS solvent containing DMSO, etc. was orally administered once daily for three weeks and, after that, the suppressive effect for anxiety symptom was evaluated by means of an elevated plus maze test. Thus, time when the mouse stayed in an open arm of the elevated plus maze and the frequency (motility amount) of coming in and out of the mouse for both open arm and closed arm were measured. When the anxiety symptom was stronger, the staying time in the open arm was shorter. At that time, it is confirmed that there is no difference in the frequencies for coming in and out the arm between the cases where the stress is and is not loaded. Incidentally, the test for significance was carried out by a one-way ANOVA, Tukey's Multiple Comparison Test.

[4] = test system: male mice injected with corticosterone; test: Tail suspension test in mice administered corticosterone; conditions: after two weeks, control 141.15 seconds
Protocol: Corticosterone suspended in oil was hypodermically injected to male mice of seven weeks age (n=3 to 5) in a dose of […] every day for three weeks. At the same time, the compound of the present invention dissolved in PBS or in a PBS solvent containing DMSO, etc. was orally administered every day for three weeks. After one, two and three week(s), the suppressive effect for depressive symptom was evaluated by a tail suspension test in the same manner as in the above Test Example 7. Incidentally, the test for significance was conducted by a Student's t-test.

[5] = test system: disablement model rats with hemi-transection of spinal cord; test: Improvement in motor function (BBB scale) in rats with hemi-transection of spinal cord
Protocol: Female Wistar rats of seven weeks age (body weight: 120 to 140 g) were anesthetized with pentobarbital (40 mg/kg), thoracic vertebrae were detached to expose the thoracic cord and the left half thereof was cut at the position of the tenth thoracic cord using a sharp razor. After that, the muscle and the skin were satured to prepare disablement model rats with hemi-transection of spinal cord.
The compound of the present invention was dissolved in PBS or in a PBS solvent containing DMSO, etc. and orally administered once daily for 21 to 31 days.
With regard to the group administered with the compound of the present invention (n=3 to 6) and the control group (n=3 to 6), the improvement in motor function of the disablement model rats with hemi-transection of spinal cord was evaluated by a BBB scale (Basso D M, et al., J. Neurotrauma 12:1-21 (1995). Thus, evaluation of motor function was conducted for hind limbs of rats in such respects that whether the joint moves, whether body weight is applied onto the foot, whether walking is done, etc. wherein the movement of the hind limbs was divided into 21 points from no motility to normal state. Incidentally, the test for significance was conducted by a two-way ANOVA, Bonferroni Post test.

Row | Compound | inhibition in vivo at 0.3 mg/kg [1] | staying time in an open arm (elevated plus maze) [3] | immobility time (tail suspension test) ([4]; 300 μg/kg orally every day) | other results
1 | CCCCCCC/C=C/C(=O)OCCN(C)C [Compound 1, (E)-2-(dimethylamino)ethyl dec-2-enoate] | 48.3% |  |  | 
2 | CCCCCCC/C=C/C(=O)OCCN(CC)CC [Compound 6, (E)-2-(diethylamino)ethyl dec-2-enoate] |  | 53.57 ± 7.00 s | 60.37 s | immobility time (tail suspension test) ([2]; 1,500 orally once daily for three weeks): 80.67 ± 23.94 s; BBB score ([5]; 100 μg/kg orally once daily, after nine days, control 3.5): 8.3
3 | CCCCCCC/C=C/C(=O)NCCN(C)C [Compound 36, (E)-N-2-(dimethylamino)ethyl dec-2-enamide] | 72.1% |  | 41.63 s | BBB score ([5]; 500 μg/kg orally once daily, after fifteen days, control 9.8): 12.3
4 | CCCCCCC/C=C/C(=O)NCCN(CC)CC [Compound 37, (E)-N-2-(diethylamino)ethyl dec-2-enamide] | 73.1% |  |  | 
5 | CCCCCCC/C=C/C(=O)SCCN(C)C [Compound 55, (E)-S-2-(dimethylamino)ethyl dec-2-enethioate] | 45.4% | 47.24 ± 7.52 s |  | immobility time (tail suspension test) ([2]; 1,500 μg/kg orally once daily for three weeks): 63.72 ± 10.13 s; immobility time (tail suspension test) ([4]; 1,500 μg/kg orally every day): 86.71 s; BBB score ([5]; 500 μg/kg orally once daily, after fourteen days, control 8.5): 12.3; BBB score ([5]; 500 μg/kg orally once daily, after seven days, control 1.8): 5.3
